Toxic doses and inconclusive results are not listed. How the source made its calls: active means survival T/C of 150% or more; inactive means T/C below 125% in these data.
Tested on: CD2F1 mice, L1210 leukemia ip, survival T/C
Test: NCI In Vivo Anticancer Drug Screen. Data for tumor model L1210 Leukemia (intraperitoneal) in CD2F1 (CDF1) mice
Details: endpoint: mean survival time, higher = longer survival
In short: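 Ratio T/C, where T is the treated-group value and C the vehicle-dosed control value, from mice implanted with a transplantable tumor.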

[1] = dose: 100.0 mg/kg/injection, schedule: Q01DX001 (ip), vehicle: saline with Tween-80
[2] = dose: 200.0 mg/kg/injection, schedule: Q04DX003 (ip), vehicle: saline with Tween-80
[3] = dose: 100.0 mg/kg/injection, schedule: Q04DX003 (ip), vehicle: saline
[4] = dose: 200.0 mg/kg/injection, schedule: Q04DX003 (ip), vehicle: saline
[5] = dose: 400.0 mg/kg/injection, schedule: Q04DX003 (ip), vehicle: saline
[6] = dose: 200.0 mg/kg/injection, schedule: Q01DX001 (ip), vehicle: saline with Tween-80
[7] = dose: 400.0 mg/kg/injection, schedule: Q01DX001 (ip), vehicle: saline with Tween-80

Measured: T/C

CSc1ccccc1N=Cc1cc(Cl)ccc1O
inactive: dose: 25.0 mg/kg/injection, schedule: Q01DX001 (ip), vehicle: saline with Tween-80 96 % of control | dose: 50.0 mg/kg/injection, schedule: Q01DX001 (ip), vehicle: saline with Tween-80 96 % of control | [1] 96 % of control

O=c1[nH]c(NCCc2ccccc2)c(Br)c(=O)[nH]1
inactive: dose: 75.0 mg/kg/injection, schedule: Q01DX001 (ip), vehicle: saline with Tween-80 98 % of control | dose: 150.0 mg/kg/injection, schedule: Q01DX001 (ip), vehicle: saline with Tween-80 102 % of control | dose: 300.0 mg/kg/injection, schedule: Q01DX001 (ip), vehicle: saline with Tween-80 106 % of control

C#CCCO
inactive: dose: 25.0 mg/kg/injection, schedule: Q01DX009 (ip), vehicle: saline 113 % of control | dose: 50.0 mg/kg/injection, schedule: Q01DX009 (ip), vehicle: saline 98 % of control | dose: 100.0 mg/kg/injection, schedule: Q01DX009 (ip), vehicle: saline 105 % of control

CCC(c1ccc(O)c(C2CCCCC2)c1)C(CC)c1ccc(OC(=O)c2ccccc2)c(C2CCCCC2)c1 (stereo not given)
inactive: dose: 75.0 mg/kg/injection, schedule: Q01DX001 (ip), vehicle: saline 109 % of control | dose: 150.0 mg/kg/injection, schedule: Q01DX001 (ip), vehicle: saline 100 % of control | dose: 300.0 mg/kg/injection, schedule: Q01DX001 (ip), vehicle: saline 106 % of control

Nc1ccc(-n2nc3ccc4ccccc4c3n2)cc1
inactive: dose: 25.0 mg/kg/injection, schedule: Q04DX002 (ip), vehicle: saline with Tween-80 98 % of control | dose: 50.0 mg/kg/injection, schedule: Q04DX002 (ip), vehicle: saline with Tween-80 98 % of control | dose: 100.0 mg/kg/injection, schedule: Q04DX002 (ip), vehicle: saline with Tween-80 103 % of control

CCCCCCCCCCCCCCCC[n+]1cccc(C(=O)NCO)c1
inactive: dose: 6.25 mg/kg/injection, schedule: Q01DX009 (ip), vehicle: saline with Tween-80 102 % of control | dose: 12.5 mg/kg/injection, schedule: Q01DX009 (ip), vehicle: saline with Tween-80 95 % of control | dose: 25.0 mg/kg/injection, schedule: Q01DX009 (ip), vehicle: saline with Tween-80 95 % of control | dose: 50.0 mg/kg/injection, schedule: Q04DX003 (ip), vehicle: saline with Tween-80 103 % of control | [2] 103 % of control

CCOC(=O)C(CO)NC(=O)C[NH-].CCOC(=O)C(CO)NC(=O)C[NH-].[Cl][Pt+2][Cl] (stereo not given)
inactive: [3] 111 % of control | [4] 111 % of control | [5] 114 % of control

CC(=O)Nc1ccc2c(c1)Cc1ccccc1-2
inactive: dose: 100.0 mg/kg/injection, schedule: Q01DX009 (ip), vehicle: saline with Tween-80 101 % of control | dose: 100.0 mg/kg/injection, schedule: Q04DX003 (ip), vehicle: saline with Tween-80 87 % of control | dose: 200.0 mg/kg/injection, schedule: Q01DX009 (ip), vehicle: saline with Tween-80 95 % of control | [2] 101 % of control | dose: 400.0 mg/kg/injection, schedule: Q01DX009 (ip), vehicle: saline with Tween-80 101 % of control | dose: 400.0 mg/kg/injection, schedule: Q04DX003 (ip), vehicle: saline with Tween-80 90 % of control

CCOC(=O)CN(c1c(C)cc([N+](=O)[O-])c2ccccc12)S(=O)(=O)c1ccccc1
inactive: [1] 97 % of control | [6] 94 % of control | [7] 96 % of control

CCOC1=C(C)C(=O)C1C (stereo not given)
inactive: [3] 100 % of control | [4] 94 % of control | [5] 100 % of control

CCCCOS(=O)(=O)c1ccc(C)cc1
inactive: dose: 100.0 mg/kg/injection, schedule: Q04DX002 (ip), vehicle: Klucel (hydroxypropylcellulose) (HPC) 93 % of control | dose: 200.0 mg/kg/injection, schedule: Q04DX002 (ip), vehicle: Klucel (hydroxypropylcellulose) (HPC) 101 % of control | dose: 400.0 mg/kg/injection, schedule: Q04DX002 (ip), vehicle: Klucel (hydroxypropylcellulose) (HPC) 90 % of control

Nc1nc(=O)n(CCCOc2cccc(NC(=O)c3cccc(S(=O)(=O)F)c3)c2)cc1-c1ccc(Cl)c(Cl)c1
inactive: [1] 87 % of control | [6] 90 % of control | [7] 87 % of control

c1ccc(CN2CCC(Nc3ccccc3)(c3nnnn3C3CCCCC3)CC2)cc1
inactive: [1] 95 % of control | [6] 96 % of control | [7] 90 % of control

CCN(CC)c1ccc2cc3ccc(=[N+](CC)CC)cc-3oc2c1
inactive: dose: 9.0 mg/kg/injection, schedule: Q01DX010 (ip), vehicle: saline 106 % of control

Reference: PubChem BioAssay AID256 (DTP/NCI, 2004)
